Among the data in US11299478B2, “2-cyanopyrimidin-4-yl carbamate or urea derivative or salt thereof, and pharmaceutical composition including same” (HANLIM PHARMACEUTICAL CO., LTD., priority 2018, dated 2022) are IC50 values, retold here.

Where only a bound is given, the exact number is not on record here.

What all share (assay type): biochemical
For assay [1], the target named is T1, cathepsin K (Homo sapiens, UniProt P43235).
T1 sequence (P43235 115-329): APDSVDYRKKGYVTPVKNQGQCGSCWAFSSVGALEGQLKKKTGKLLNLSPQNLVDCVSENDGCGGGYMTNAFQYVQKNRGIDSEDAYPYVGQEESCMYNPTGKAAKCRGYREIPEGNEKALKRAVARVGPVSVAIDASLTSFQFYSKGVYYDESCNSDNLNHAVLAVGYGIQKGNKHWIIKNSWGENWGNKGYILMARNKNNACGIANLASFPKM
Description: Inhibitory activity assay against cathepsin K (enzyme assay). Conditions: Z-Phe-Arg-AMC 10 μM, enzyme 1 nM, pH 5.5, 30 minutes. As for the experimental part: In order to measure the enzyme activity of cathepsin K, a buffer solution (pH 5.5) consisting of 50 mM 2-(N-morpholino)ethanesulfonic acid (MES), 2 mM dithiothreitol (DTT), 2.5 mM ethylenediaminetetraacetic acid (EDTA), 0.01% Triton X-100, and 10% dimethyl sulfoxide (DMSO) was prepared. The substrate, the test material, and the enzyme were mixed in the buffer solution in a predetermined concentration. The Z-Phe-Arg-AMC substrate was used in the final concentration of 10 μM. The test material was used in the final concentrations of 10.0 μM, 3.33 μM, 1.11 μM, 0.370 μM, 0.123 μM, 0.0412 μM, 0.0137 μM, 0.00457 μM, 0.00152 μM, and 0.000508 μM, respectively. The cathepsin K enzyme was used in the final concentration of 1 nM. The final volume of the enzyme reaction solution was 10 μL. After reacting the mixture of substrate, test material, and enzyme for 30 minutes, the enzyme activity was measured with the Synergy Neo (Biotek) microplate reader at an absorption wavelength of 355 nm and an emission wavelength of 460 nm. IC50 values were determined using 4-parameter logistic curve fit program of GraphPad Prism.

Assay [2] deals with cathepsin B (Homo sapiens, UniProt P07858). Briefly: Inhibitory activity assay against cathepsin B (enzyme assay). Conditions: Z-Arg-Arg-AMC 40 μM, enzyme 1 nM, pH 6.0, 90 minutes. As for the experimental part: In order to measure the enzyme activity of cathepsin B, a buffer solution (pH 6.0) consisting of 50 mM MES, 5 mM DTT, 2.5 mM EDTA, 0.005% Polysorbate 20, and 10% DMSO was prepared. The substrate, the test material, and the enzyme were mixed in the buffer solution in a predetermined concentration. The Z-Arg-Arg-AMC substrate was used in the final concentration of 40 μM. The test material was used in the final concentrations of 10.0 μM, 3.33 μM, 1.11 μM, 0.370 μM, 0.123 μM, 0.0412 μM, 0.0137 μM, 0.00457 μM, 0.00152 μM, and 0.000508 μM, respectively. The cathepsin B enzyme was used in the final concentration of 1 nM. The final volume of the enzyme reaction solution was 10 μL. After reacting the mixture of substrate, test material, and enzyme for 90 minutes, the enzyme activity was measured with the EnVision (Perkin Elmer) microplate reader at an absorption wavelength of 340 nm and an emission wavelength of 460 nm. IC50 values were determined using 4-parameter logistic curve fit program of GraphPad Prism.

For assay [3], the target named is cathepsin L (Homo sapiens, UniProt P07711). Description: Inhibitory activity assay against cathepsin L (enzyme assay). Conditions: Z-Phe-Arg-AMC 2 μM, enzyme 3 nM, pH 5.5, 30 minutes. As for the experimental part:
In order to measure the enzyme activity of cathepsin L, a buffer solution (pH 5.5) consisting of 50 mM MES, 2.5 mM DTT, 2.5 mM EDTA, 0.005% Polysorbate 20, and 10% DMSO was prepared. The substrate, the test material, and the enzyme were mixed in the buffer solution in a predetermined concentration. The Z-Phe-Arg-AMC substrate was used in the final concentration of 2 μM. The test material was used in the final concentrations of 10.0 μM, 3.33 μM, 1.11 μM, 0.370 μM, 0.123 μM, 0.0412 μM, 0.0137 μM, 0.00457 μM, 0.00152 μM, and 0.000508 μM, respectively. The cathepsin L enzyme was used in the final concentration of 3 nM. The final volume of the enzyme reaction solution was 10 μL. After reacting the mixture of substrate, test material, and enzyme for 30 minutes, the enzyme activity was measured with the EnVision (Perkin Elmer) microplate reader at an absorption wavelength of 340 nm and an emission wavelength of 460 nm. IC50 values were determined using 4-parameter logistic curve fit program of GraphPad Prism.

Assay [4] concerns the target cathepsin S (Homo sapiens, UniProt P25774). Briefly: Inhibitory activity assay against cathepsin S (enzyme assay). Conditions: Z-Phe-Arg-AMC 70 μM, enzyme 3 nM, pH 6.5, 45 minutes. As to the method: In order to measure the enzyme activity of cathepsin S, a buffer solution (pH 6.5) consisting of 50 mM MES, 2.5 mM DTT, 1.0 mM EDTA, 0.001% bovine serum albumin (BSA), and 10% DMSO was prepared. The substrate, the test material, and the enzyme were mixed in the buffer solution in a predetermined concentration. The Z-Phe-Arg-AMC substrate was used in the final concentration of 70 μM. The test material was used in the final concentrations of 10.0 μM, 3.33 μM, 1.11 μM, 0.370 μM, 0.123 μM, 0.0412 μM, 0.0137 μM, 0.00457 μM, 0.00152 μM, and 0.000508 μM, respectively. The cathepsin S enzyme was used in the final concentration of 3 nM. The final volume of the enzyme reaction solution was 10 μL.
After reacting the mixture of substrate, test material, and enzyme for 45 minutes, the enzyme activity was measured with the EnVision (Perkin Elmer) microplate reader at an absorption wavelength of 340 nm and an emission wavelength of 460 nm. IC50 values were determined using 4-parameter logistic curve fit program of GraphPad Prism.

cathepsin S, sequence (P25774 115-331, species assumed): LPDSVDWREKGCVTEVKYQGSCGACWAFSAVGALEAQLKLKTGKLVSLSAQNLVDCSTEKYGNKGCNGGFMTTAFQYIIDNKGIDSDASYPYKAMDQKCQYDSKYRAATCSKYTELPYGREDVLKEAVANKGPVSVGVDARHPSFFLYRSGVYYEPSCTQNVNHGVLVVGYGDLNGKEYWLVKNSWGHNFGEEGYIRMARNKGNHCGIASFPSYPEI
cathepsin L, sequence (P07711 114-333, species assumed): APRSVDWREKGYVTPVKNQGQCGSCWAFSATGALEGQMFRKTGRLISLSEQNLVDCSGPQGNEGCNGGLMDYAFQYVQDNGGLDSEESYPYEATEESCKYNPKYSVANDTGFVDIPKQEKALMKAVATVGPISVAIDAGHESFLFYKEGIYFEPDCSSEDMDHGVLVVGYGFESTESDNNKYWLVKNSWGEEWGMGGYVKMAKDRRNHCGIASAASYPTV

Regarding `N#Cc1nccc(C2(NC(=O)Nc3ccccc3)CCCC2)n1` [Example 41, 1-(1-(2-cyanopyrimidin-4-yl)cyclopentyl)-3-phenylurea], the concentration for half-maximal inhibition (IC50) in assay [1] is 39.9 nM; in assay [2], greater than 10000 nM; in assay [3], 8180 nM; in assay [4], greater than 10000 nM.

Regarding `N#Cc1nccc(C2(NC(=O)NCc3ccccc3)CCCC2)n1` [Example 42, 1-benzyl-3-(1-(2-cyanopyrimidin-4-yl)cyclopentyl)urea], the IC50 in assay [1] is 31.2 nM; in assay [2], greater than 10000 nM; in assay [3] it was 7540 nM; in assay [4], greater than 10000 nM.

On to `CC(=O)Nc1ccc(-c2ccc(NC(=O)NC3(c4ccnc(C#N)n4)CCCCC3)cc2)cc1` [Example 129, N-(4′-(3-(1-(2-cyanopyrimidin-4-yl)cyclohexyl)ureido)-[1,1′-biphenyl]-4-yl)acetamide], for which the IC50 was 4.9 nM in assay [1], greater than 10000 nM in assay [2], greater than 10000 nM in assay [3] and greater than 10000 nM in assay [4].

Consider `N#Cc1nccc(C2(NC(=O)Nc3ccc(-c4ccc(C(=O)NCC5CCCO5)cc4)cc3)CCCCC2)n1` (centres unmarked) [Example 158, 4′-(3-(1-(2-cyanopyrimidin-4-yl)cyclohexyl)ureido)-N-((tetrahydrofuran-2-yl)methyl)-[1,1′-biphenyl]-4-carboxamide], for which the IC50 in assay [1] was 6.6 nM; in assay [2], 5650 nM; in assay [3], greater than 10000 nM; in assay [4] it was 9430 nM.

Take `CCN1CCN(c2ccc(-c3ccc(NC(=O)NC4(c5ccnc(C#N)n5)CCCCC4)cc3)cc2)CC1` [Example 160, 1-(1-(2-cyanopyrimidin-4-yl)cyclohexyl)-3-(4′-(4-ethylpiperazin-1-yl)-[1,1′-biphenyl]-4-yl)urea]: the IC50 in assay [1] was 0.1 nM; in assay [2] it was 1840 nM; in assay [3], 8810 nM; in assay [4], greater than 10000 nM.

For the compound `CN1CCN(c2ccc(NC(=O)NC3(c4ccnc(C#N)n4)CCCCC3)cc2)CC1` [Example 138, 1-(1-(2-cyanopyrimidin-4-yl)cyclohexyl)-3-(4-(4-methylpiperazin-1-yl)phenyl)urea], the IC50 was 5.8 nM in assay [1], greater than 10000 nM in assay [2], 4200 nM in assay [3] and no less than 10000 nM in assay [4].

As to `N#Cc1nccc(C2(NC(=O)Nc3ccc(-c4ccc(C(=O)NCCn5ccnc5)cc4)cc3)CCCCC2)n1` [Example 185, N-(2-(1H-imidazol-1-yl)ethyl)-4′-(3-(1-(2-cyanopyrimidin-4-yl)cyclohexyl)ureido)-[1,1′-biphenyl]-4-carboxamide], the IC50 is 0.1 nM in assay [1], 1760 nM in assay [2], 4400 nM in assay [3] and greater than 10000 nM in assay [4].

On to `N#Cc1nccc(C2(NC(=O)Nc3ccc(Br)c(C(F)(F)F)c3)CCCCC2)n1` [Example 133, 1-(4-bromo-3-(trifluoromethyl)phenyl)-3-(1-(2-cyanopyrimidin-4-yl)cyclohexyl)urea], for which the IC50 was 63.7 nM in assay [1], greater than 10000 nM in assay [2], greater than 10000 nM in assay [3] and greater than 10000 nM in assay [4].

Turning to `CS(=O)(=O)c1ccc(-c2cccc(COC(=O)NC3(c4ccnc(C#N)n4)CCCC3)c2)cc1` [Example 30, (4′-(methylsulfonyl)-[1,1′-biphenyl]-3-yl)methyl (1-(2-cyanopyrimidin-4-yl)cyclopentyl)carbamate], the IC50 in assay [1] is 355 nM; in assay [2], greater than 10000 nM; in assay [3] it was greater than 10000 nM; in assay [4], 9450 nM.

Turning to `CN(C)CCNC(=O)c1ccc(-c2ccc(NC(=O)NC3(c4ccnc(C#N)n4)CCCCC3)cc2)cc1` [Example 159, 4′-(3-(1-(2-cyanopyrimidin-4-yl)cyclohexyl)ureido)-N-(2-(dimethylamino)ethyl)-[1,1′-biphenyl]-4-carboxamide], the IC50 in assay [1] is 0.6 nM; in assay [2], 1890 nM; in assay [3], 4090 nM; in assay [4], greater than 10000 nM.

`N#Cc1nccc(C2(NC(=O)Nc3cc(F)ccc3C(F)(F)F)CCCC2)n1` [Example 67, 1-(1-(2-cyanopyrimidin-4-yl)cyclopentyl)-3-(5-fluoro-2-(trifluoromethyl)phenyl)urea]: the IC50 in assay [1] was 64.6 nM; in assay [2] it was greater than 10000 nM; in assay [3], greater than 10000 nM; in assay [4], greater than 10000 nM.

Turning to `N#Cc1nccc(C2(NC(=O)Nc3ccc(Oc4ccccc4)cc3)CCCC2)n1` [Example 44, 1-(1-(2-cyanopyrimidin-4-yl)cyclopentyl)-3-(4-phenoxyphenyl)urea], the IC50 is 18.5 nM in assay [1], greater than 10000 nM in assay [2], greater than 10000 nM in assay [3] and greater than 10000 nM in assay [4].

For the compound `N#Cc1nccc(C2(NC(=O)OCc3cccc4ccccc34)CCCCC2)n1` [Example 26, naphthalen-1-ylmethyl (1-(2-cyanopyrimidin-4-yl)cyclohexyl)carbamate], the IC50 in assay [1] was 61.7 nM; in assay [2], greater than 10000 nM; in assay [3] it was 5950 nM; in assay [4] it was greater than 10000 nM.

With `N#Cc1nccc(C2(NC(=O)OCc3ccccc3)CCCCC2)n1` [Example 10, Benzyl (1-(2-cyanopyrimidin-4-yl)cyclohexyl)carbamate], the IC50 in assay [1] is 5.6 nM; in assay [2], greater than 10000 nM; in assay [3] it was 1180 nM; in assay [4] it was 7010 nM.

For the compound `N#Cc1nccc(C2(NC(=O)NCc3ccccc3C(F)(F)F)CCCCC2)n1` [Example 91, 1-(1-(2-cyanopyrimidin-4-yl)cyclohexyl)-3-(2-(trifluoromethyl)benzyl)urea], the IC50 in assay [1] was 32.2 nM; in assay [2] it was greater than 10000 nM; in assay [3] it was 4770 nM; in assay [4] it was greater than 10000 nM.

In the case of `N#Cc1nccc(C2(NC(=O)Nc3cccc4ccccc34)CCCC2)n1` [Example 74, 1-(1-(2-cyanopyrimidin-4-yl)cyclopentyl)-3-(naphthalen-1-yl)urea], the 50% inhibitory concentration (IC50) in assay [1] was 27 nM; in assay [2], greater than 10000 nM; in assay [3] it was greater than 10000 nM; in assay [4], greater than 10000 nM.

Take `COC(=O)Cc1ccc(-c2ccc(NC(=O)NC3(c4ccnc(C#N)n4)CCCCC3)cc2)cc1` [Example 156, methyl 2-(4′-(3-(1-(2-cyanopyrimidin-4-yl)cyclohexyl)ureido)-[1,1′-biphenyl]-4-yl)acetate]: the IC50 is 4.3 nM in assay [1], greater than 10000 nM in assay [2], greater than 10000 nM in assay [3] and greater than 10000 nM in assay [4].
